For data set [1], the system named is NF-κB and AP-1 inducible SEAP reporter in RAW-Blue™ cells. The data set can be described thus: RAW-Blue™ cells Quanti-Blue™ SEAP reporter assay, LPS-stimulated (high-throughput inflammatory assay). The data set is classed as cell-based, murine. The text has this: RAW 264.7 macrophages are commonly used to study the functional characteristics of the endocannabinoid system (ECS). Specifically, this model is widely employed to assess the anti-inflammatory functions of the ECS (Carrier, et al. 2006, “Inhibition of an equilibrative nucleoside transporter by cannabidiol: A mechanism of cannabinoid immunosuppression,” PNAS, 103(20), 7895-7900). RAW-Blue™ cells are derived from RAW 264.7 macrophages and are genetically modified to comprise a secreted embryonic alkaline phosphatase (SEAP) reporter construct that is inducible by NF-κB and AP-1. These RAW-Blue™ cells express a variety of pattern recognition receptors, including Toll like receptor 4 (TLR4). The activation of these pattern recognition receptors on the RAW-Blue™ cells (e.g., by lipopolysaccharide (LPS) in the case of TLR4) induces signaling through NF-κB and/or AP-1, thereby leading to increased secretion of the SEAP reporter gene. Therefore, the RAW-Blue™ macrophages and provide a robust, high-throughput model of inflammatory processes.
RAW-Blue™ cells were cultured in high-glucose containing Dulbecco's Modified Eagle Medium (Merck) supplemented with 10 (V/V) % fetal bovine serum (FBS; ThermoFisher), 2-4 mM L-glutamine, 50 U/mL penicillin, 50 μg/mL streptomycin as well as with antibiotics for selection: 100 μg/mL Normocin™ (InvivoGen) and Zeocin™ (InvivoGen). Cells were cultured at 37° C. in humidified, 5% CO2 containing atmosphere. The medium was changed every other day, and cells were sub-cultured at 70-80% confluence.
For each of these phases, 100,000 RAW-Blue™ cells/well were seeded in a 96-well plate in triplicate and cultured for 24 hours to allow attachment of the macrophages to the cell culture plate. After 24 hrs cells were pre-treated with selected concentrations of CBD, BCP, or CBD+BCP. Two hours after drug pre-treatment, cells were stimulated with 0.1 μg/mL LPS (Sigma-Aldrich) to induce activation of the TLR4 pathway. After 24 hours of LPS stimulation, 150 μL Quanti-Blue™ Medium was aliquoted per well in a 96-well plate and 50 μL of the experimental supernatants were added per well. Cell culture medium was used as negative control. After 1 hour incubation, SEAP levels were detected by measuring absorbance levels at λ=650 nm at 37° C. Results are expressed as a % decrease in SEAP levels in drug-treated, LPS-stimulated groups compared to the SEAP level of the untreated, LPS-stimulated group (regarded as 100%). All experiments were repeated 2-3 times.

The subject of data set [2] is OXA-induced ear edema, ACD mouse model. Nature of the data set: Oxazolone-induced allergic contact dermatitis model, ear edema. In kind it is in vivo. Conditions: for OXA-induced edema formation: topically applied 1 μM. How it is done: Prednisolone was solved in 1:1 of DMSO/saline and was administered topically (15-15 μL to the inner and outer surface of the ears). All other test compounds were solved in 96% ethanol. All solutions of all the concentrations were prepared freshly on the first day of every experiment and were stored at 4° C., then shaken properly before the treatments.
Anesthesia was induced by ketamine (Richter Gedeon, Budapest, Hungary) (100 mg/kg i.p., repeated as required) with xylazine (Lavet Ltd., Budapest, Hungary) (5 mg/kg i.m.). Animals were sensitized on two consecutive days by painting 2% oxazolone (50-50 μL, Merck KGaA) on the shaved abdomen. On the 6th day the right ears were smeared with 2% oxazolone (OXA) dissolved in 96% ethanol: 15-15 μL solution was applied on each of the inner and outer surfaces. Control ears were treated with 96% ethanol in the same way. Drug-treated groups were treated with 15-15 μL of drug solution smeared to the inner and outer side of the ears every 4 hrs of the experiment after oxazolone treatment. A schematic of the experimental protocol is provided in FIG. 24 and the experimental groups are defined below. • (a) Group 1: Ethanol-treated Controls: left ear: 96% ethanol, right ear: 2% oxazolone • (b) Group 2: 1 μM CBD • (c) Group 3: 10 μM CBD • (d) Group 4: 1 μM HU101 • (e) Group 5: 10 μMHU101
Ear thickness was measured with an engineer's micrometer, with 0.1 mm accuracy, before challenge with test agents and after the challenge at different time points. Data are expressed as % increase of ear thickness compared to the initial values.
Results are expressed as mean±SEM. Comparisons between different treatment groups were performed using two-way ANOVA followed by Sidak's post hoc test for skin thickness and one-way ANOVA followed by Bonferroni's post hoc test for MPO and vascular leakage. * p<0.05 was considered to be significant.

Data set [3] has as its system RAW-Blue™ cells. Nature of the data set: MTT cell viability assay, RAW-Blue™ cells. Conditions: CBD 30 μM; BCP 300 μM. In general terms: Tetrazolium assays rely on reduction of a dye to a coloured formazan, in cell work by metabolically active cells.
Where [4] appears, read: Mus musculus, RAW-Blue, read-out: % Inhibition Alone.

Like-named read-outs stand apart in the source and are kept apart here.

The term inhibition denotes the change of the read-out against control, counted positive when it falls.

Consider `C=C(C)[C@@H]1CCC(C)=C[C@H]1c1c(O)cc(CCCCC)cc1O` [CBD, cannabidiol], for which the inhibition at 10 pM in data set [1] (Mus musculus, RAW-Blue, single agent 0.00001 μM, read-out: % Inhibition Alone) turned out to be 1.9 ± 0.9%. In data set [1] (Mus musculus, RAW-Blue, single agent 0.0001 μM, read-out: % Inhibition Alone), the inhibition at 0.0001 µM stood at 2.4 ± 2%. Also, the inhibition at 0.001 µM in data set [1] (Mus musculus, RAW-Blue, single agent 0.001 μM, read-out: % Inhibition Alone) came out at 3.1 ± 3.1%. The inhibition at 0.01 µM in data set [1] (Mus musculus, RAW-Blue, single agent 0.01 μM, read-out: % Inhibition Alone) stood at 5.8 ± 2.9%. Besides, the inhibition at 0.1 µM in data set [1] (Mus musculus, RAW-Blue, single agent 0.1 μM, read-out: % Inhibition Alone) is 8.5%. In data set [1] (Mus musculus, RAW-Blue, single agent 0.3 μM, read-out: % Inhibition Alone), the inhibition at 0.3 µM came out at 10 ± 0.8%. Moreover, the inhibition at 1 µM in data set [1] (Mus musculus, RAW-Blue, single agent 1 μM, read-out: % Inhibition Alone) worked out at 44.6%. In data set [1] (Mus musculus, RAW-Blue, single agent 3 μM, read-out: % Inhibition Alone), the inhibition at 3 µM was 40.5 ± 9.5%. Also, in data set [1] (Mus musculus, RAW-Blue, single agent 10 μM, read-out: % Inhibition Alone), the inhibition at 10 µM came to 59.3 ± 3.7%. Also, the inhibition at 30 µM in data set [1] (Mus musculus, RAW-Blue, single agent 30 μM, CBD value flagged * possibly cytotoxicity, read-out: % Inhibition Alone) worked out at 78 ± 7.9%. The “concentrations with marked effects on SEAP levels” value in data set [1] (applied alone) was at least 1 µM. The “% Inhibition Alone” value in data set [1] (single agent 30 μM, CBD value flagged * possibly cytotoxicity) is recorded as “*78 ± 7.9%”. Also, the “Effect in ACD mouse model, significance of ear edema difference” value in data set [2] (OXA + CBD 1 μM vs. OXA + CBD 10 μM, 56 h) is on record as “* (* p ≤ 0.05)”; in data set [2] (OXA vs. OXA + CBD 1 μM, 24 h), “** (** p ≤ 0.01)”. Moreover, the OXA-induced edema formation result was “significantly prevented” in data set [2] (24 hr time-point) and “only minor” in data set [2] (later time-points). For the same compound, in data set [2] (topically applied 10 μM), the “anti-inflammatory effect on OXA-induced edema” value is on record as “did not exert any anti-inflammatory effect”. Besides, the “toxicity (as determined by MTT assay)” value in data set [3] is listed as “appeared to induce toxicity”.
For the compound `C=C1CC/C=C(\C)CC[C@H]2[C@H]1CC2(C)C` [BCP, (E)-beta-caryophyllene], in data set [1] (setting [4]), the inhibition at 0.0001 µM is 0%, the inhibition at 0.001 µM turned out to be 1 ± 0.8%, the inhibition at 0.01 µM came out at 3.8 ± 1.9% and the inhibition at 0.013 µM came to 9.2%. In data set [1] (setting [4]), the inhibition at 0.1 µM was 8 ± 6.4%, the inhibition at 0.13 µM was 0%, the inhibition at 0.3 µM amounted to 1.6 ± 1.4% and the inhibition at 1 µM was found to be 2.5 ± 2%. Also, in data set [1] (setting [4]), the inhibition at 3 µM came to 1.25 ± 1%, the inhibition at 10 µM was determined as 28.6 ± 14.3%, the inhibition at 30 µM was 0% and the inhibition at 100 µM came to 11.7 ± 5.8%. The inhibition at 300 µM in data set [1] (setting [4]) came out at 92.2 ± 17.1%. The “anti-inflammatory actions when applied alone” value in data set [1] (SEAP levels) is listed as “only minor (if any) anti-inflammatory actions”. The “% Inhibition Alone” value in data set [1] (single agent 300 μM, * possibly cytotoxicity) is “*92.2 ± 17.1%”.

The values are drawn from US11154515B2, “Pharmaceutical compositions comprising cannabidiol and beta-caryophyllene and methods for their use” (priority 2017, dated 2021).
